# Reference: US10933039B2, “Coolant mixtures” (Symrise AG, priority 2016, dated 2021)
# Assay: Sensory evaluation of coolant mixtures by a panel of 5 trained testers (cooling effect and flavor profile) in a standard chewy candy preparation
# Format: in vivo
# Details: panel score (5)=very true to (0)=largely not true; mean values of 5 trained testers; unsweetened, non-aromatized standard chewy candy preparation
# Protocol: The cooling effect and flavor profile of various coolant mixtures were evaluated by a panel consisting of 5 trained testers. For this purpose, the mixtures were incorporated into an unsweetened and non-aromatized standard chewy candy preparation. The evaluation was reported according to the notation (5)=very true to (0)=largely not true. Data are mean values.
SMILES,Cooling effect is strong,Cooling effect occurs rapidly
"CC(C)C(=O)O [C3, Isobutyric acid]",3.0,2.2
"CC(C)CC(=O)O [C4, Isovaleric acid]",3.1,2.5
"CC(C)C=O [C1, Isobutyraldehyde]",3.2,2.1
"CC(C)CC=O [C2, Isovaleraldehyde]",3.1,2.0
